Assay results from patent publication US20120251628A1, “COMPOSITIONS AND METHODS FOR TREATMENT OF CANCER” (priority 2011, published 2012).

Assays:
HUVECs [1] = experiment: Cytotoxicity test of HUVECs (CellTiter 96 Aqueous One Solution); type: cell-based, Human
Method: (§1) To determine the effect, if any, of sodium meta arsenite on vascularization, the effect on endothelial cells (which are essential for vascularization) was first analyzed. Human umbilical cord vein endothelial cells (HUVECs offered by ATCC) were cultivated in 96-well microculture plates containing F-12K (Sigma) medium supplemented with 10% FBS and endothelial cell growth supplement (ECGS, E2759, Sigma). For the cytotoxicity test of the cells after 24 hour cultivation, the cells were treated with KML001 at the concentration of 0.1 nM, 1 nM, 10 nM, 1 uM, 10 uM and 100 uM. At 24 hours and 48 hours after treatment, 20 μl/well of CellTiter 96® Aqueous One Solution (by Promega) Reagent was added on each well and reacted for one hour at 37° C. The reacted 96-well plates were measured at 490 nm using a spectrophotometer (UVStar, Greiner Bio-One). To analyze apoptosis of HUVECs, the cells were cultivated on F25 flasks using the same method as discussed above and then the cells were treated with sodium meta arsenite at a concentration of 10 uM, 20 uM and 50 uM. Cells were collected after 24 and 48 hours. The collected cells were stained for 30 minutes with Annexin-V for FACS analysis. After two washes, the cells were analyzed by using flow cytometry (FACSCALIBUR, BECTON DICLINSON).

[2] = tested on: CT26 (mouse colon cancer); experiment: DCE-MRI of tumor vascularity (Kep) in CT26 tumor mice; type: in vivo
Method: To determine whether the occurrence of central necrosis of tumors 24 hours after treatment was caused by the reduction of vascularity, DCE-MRI was used before the medication was administered and 24 hours after administration.
Inoculate CT26 (mouse colon cancer) 2×10^6 cell subcutaneously into mice on the upper parts of their thighs.
After checking the tumor size between 6 to 10 mm, acquire images through MRI.
Image Acquisition: Use a magnetic resonance imaging device (i.e., 3 Tesla Intera human clinical scanner; Philips medical systems) and a mouse coil with an inner diameter of 4 cm to get images. Acquire images before the drug is administered and those 24 hours after that for two days.
MR Pulse Sequence as follows: Dynamic Contrast enhanced MRI scan: FOV (mm)=50×35; RFOV (%)=71; Matrix scan=112; reconstruction=224; TR/TE (ms)=12/4.0; slice thickness=1 mm; slice number=11; dynamic scans=60.
i. Conduct an experiment to the subjects under anesthesia by using an inhalation anesthetic mixing 1.5% isoflurane in 100% oxygen at a flow rate of 1 L/min.
ii. Cannulate an intravenous injection line through the tail vein to inject a contrast agent.
iii. Use Gd-DTPA (Magnevist, Schering, Germany, 281 mg/kg) as a contrast agent and get pre-contrast images before injecting the contrast agent and post-contrast images after injecting it.
iv. After getting the images, inject KML001 (10 mg/kg) and Arsenic trioxide (7.5 mg/kg) intraperitoneally.
v. Get images through a dynamic scan again 24 hours after injection.
Accordingly, the groups of animals with which the DCE-MRI data was obtained are as follows: Group of animals treated with ATO: n=4, Group of animals treated with Saline: n=4 and Group of animals treated with KML001: n=6.
As the low data in MRI was mapped from each result of the DCE-MRI to the positive control group of animals treated with ATO, the negative control group of animals treated with saline and the experimental group of animals treated with KML001, Kep values important for tumor vascularity were calculated. Kep (rate constant) is the back diffusion rate constant from interstitial space to vascular space, reflecting leakage of tumor vessels, i.e., a measurement of vascularity.

[3] = tested on: CT26 colon carcinoma cells; experiment: Anti-tumor effect in mice bearing subcutaneous CT26 tumors, alone or with irinotecan; type: in vivo
Method: Female BALBc mice bearing subcutaneous CT26 colon carcinoma cells were injected intraperitoneally with sodium meta arsenite (10/mg/kg body weight) or irinotecan alone, or co-administered weekly for four weeks.

[4] = tested on: CT26 colon carcinoma cells; experiment: Observation of necrosis in tumor tissues after treatment (tumor images); type: in vivo; conditions: 10 mg/kg intraperitoneal; discolored at 24 hours after injection; BALB/c mice
Method: Seven-week-old, female, specific-pathogen-free (BALB/c) white mice (weight: approximately 20 g) purchased from ORIENTBIO Inc. (Seoul Korea) were subcutaneously injected with 2×10^6 of CT26 colon carcinoma cells per mouse. When the tumor size became 3 mm in diameter, the control group was injected with a phosphate buffered saline (PBS) solution with 5% dextrose while the experimental group was intraperitoneally injected with 100 μL of sodium meta arsenite at a concentration of 10 mg/kg with 5% dextrose. After injection, the measurements of the size of tumors (volume=πab^2/6, where a and b are diameters of tumors) by using the caliper once every two days and the images of the tumors were recorded for 15 days. While the discoloration of the tissues of the mice injected without sodium meta arsenite was not observed for a certain period of time, the central part of tumors in the tissues of the white mice injected with sodium meta arsenite became discolored at 24 hours after the injection of sodium meta arsenite. As time went by, it was observed that the tumors became discolored regardless of the injection of sodium meta arsenite.

HUVECs [5] = experiment: Apoptosis of HUVECs (Annexin-V FACS analysis); type: cell-based, Human
Method: as §1

Q: With O=[As][O-].[Na+] [sodium meta arsenite] as the compound, how does the “concentration at which cytotoxicity was observed” value (HUVECs [1]; 24 and 48 hours after treatment, tested 0.1 nM to 100 uM) read?
A: 10 µM

Q: And the cytotoxicity over time (HUVECs [1]; 24 hours vs 48 hours)?
A: significantly increased over time

Q: And the “Kep values (back diffusion rate constant, tumor vascularity)” value ([2]; 24 hours after intraperitoneal injection vs pre-treatment, KML001 10 mg/kg, ATO 7.5 mg/kg)?
A: significantly reduced

Q: What about the “contrast enhancement of the tumors in the MRI” value ([2]; 24 hours after treatment) of the same compound?
A: decreased

Q: And the tumor growth delay ([3]; sodium meta arsenite administered 24 hours or 72 hours after irinotecan, weekly for four weeks)?
A: Significant tumor growth delay

Q: What about the tumor regrowth ([3]; sodium meta arsenite alone, 10 mg/kg intraperitoneal) of the same compound?
A: regrowth was observed from the periphery after two days

Q: And the “necrosis of the tumor” value ([3]; sodium meta arsenite alone, 10 mg/kg intraperitoneal, by 24 hours after treatment)?
A: Massive necrosis in the central part of the tumor

Q: And the “discoloration of the central part of tumors due to necrosis” value [4]?
A: the tissues in the central part became discolored due to necrosis

Q: What about the “apoptosis, dependence on concentration” value (HUVECs [5]; 10 uM, 20 uM and 50 uM) of the same compound?
A: concentration dependent, increasing with increased concentration

Q: What about the apoptosis over time (HUVECs [5]; 24 and 48 hours exposure) of the same compound?
A: increased over time
